Read-outs that look alike come from different tables or passages of the source.
How the values were obtained:
[1] = test system: patients with advanced solid tumours
Excerpt: This study was an open-label, multicentre, dose-escalating phase I study of rucaparib administered in combination with one of four different standard chemotherapeutic regimens (NCT01009190). […] The primary objective was to assess safety and tolerability and estimate the maximum tolerated dose (MTD) and/or select the recommended phase II dose of rucaparib in combination with chemotherapy. Secondary objectives were to characterise the pharmacokinetics (PK) and assess the antitumour activity of rucaparib when combined with chemotherapy.
Safety assessments included collection of adverse events (AEs) and serious AEs (defined by National Cancer Institute Common Terminology Criteria for Adverse Events version 3.0; [Pedersen et al, 2013]), as well as vital signs, physical examination, 12-lead electrocardiogram, laboratory assessments, and verification of concurrent medications. Safety variables and demographic data were presented descriptively. The safety analysis set included all enrolled patients who started treatment.

[2] = test system: patients with advanced solid tumours; assay: Dose-limiting toxicities in cycle 1 and maximum tolerated dose; format: in vivo, human; conditions: days 1–14, with AUC5 carboplatin day 1, 21-day cycles
Protocol: Initially, at least three patients were treated at each dose level. If no DLT was observed, the dose was escalated for the next cohort of three patients. […] If no further DLT was observed, the next dose level was opened. […] When a dose was concluded to be above the MTD, the preceding lower dose was declared the MTD, but only if six patients had already been treated at this lower dose.
All patients who received at least one dose of study medication were evaluable for toxicity.

clinical = conditions: human, in vivo; for half-life: t1/2
Protocol: (§1) On cycle 1 days −10, −5, 1, and 14, plasma samples were obtained from all patients before rucaparib dosing and at 15 and 30 min, and at 1, 1.5, 2.5, 4, 6, 10, and 24 h after the start of the rucaparib administration (i.v. infusion (day −10) or oral (days −5, 1, and 14)). On cycle 1 days −10 and −5, samples were also obtained 48 h after the start of rucaparib administration. Rucaparib concentration was determined using liquid chromatography with tandem mass spectrometry.
(§2) Plasma clearance or apparent plasma clearance and steady-state volume of distribution were calculated for rucaparib. The oral bioavailability of rucaparib was calculated as the ratio of dose-normalised AUC0–t or AUCinf (data permitting) determined using oral rucaparib PK data collected on cycle 1 day −5 to that determined using the i.v. PK data collected on cycle 1 day −10. Pharmacokinetic parameters were summarised with the geometric mean and the coefficient of variation (CV). The ratio of Cmax and AUC0–24 of rucaparib administered in combination with chemotherapies to those of rucaparib alone was calculated and summarised, with mean and CV% to evaluate the effect of chemotherapies on the PK of rucaparib for both the i.v. dose (day −10) and oral dose (day −5).
(§3) The oral bioavailability of rucaparib was calculated as the ratio of dose-normalised AUC0-t or AUCinf (data permitting) determined using oral rucaparib PK data collected on cycle 1 day –5 to that determined using the intravenous PK data collected on cycle 1 day –10. The tmax was summarised with medians and ranges. The accumulation ratio after multiple oral rucaparib dosing (once daily) was assessed as the ratio of the AUC0-24 determined using PK collected on cycle 1 day 14 to the AUC0-24 after the cycle 1 day –5 lead-in dose. The ratio of the Cmax on day 14 to the Cmax on day –5 was also calculated. Additionally, the ratio of the AUC0-24 on cycle 1 day 14 to the AUCinf after the cycle 1 day –5 lead-in dose was calculated as an indication for any time-dependent change in rucaparib PK.

[3] = in vivo
Protocol: as §1, §2, §3

[4] = test system: patients with advanced solid tumours; conditions: single-agent oral rucaparib; ref Kristeleit et al, 2014; cited from earlier work
[5] = test system: advanced ovarian or breast cancer associated with a germline BRCA1/2 mutation; parameters: method as in Drew et al, 2016; conditions: single agent, ref Drew et al, 2016, cited from earlier work
advanced solid tumours = assay: Investigator-assessed tumour response (RECIST version 1.1); format: in vivo, human
Protocol: Antitumour activity was assessed by the investigators according to Response Evaluation Criteria in Solid Tumor version 1.1 (RECIST) ([Eisenhauer et al, 2009]) through radiological tumour assessments performed every two cycles and/or at the end of treatment, whichever occurred first.

[6] = investigator-assessed, RECIST 1.1, All patients (N=85), all arms

CNCc1ccc(-c2[nH]c3cc(F)cc4c3c2CCNC4=O)cc1 [rucaparib]
Patients who died of disease progression while on study ([1]; across treatment arms, assessed as unrelated to study drug): 7.1%
Anaemia ([1]; human, in vivo): 31 (36.5) n (%)
Asthenia ([1]; human, in vivo): 3 (3.5) n (%)
Constipation ([1]; human, in vivo): 22 (25.9) n (%)
Decreased appetite ([1]; human, in vivo): 17 (20.0) n (%)
Diarrhoea ([1]; human, in vivo): 17 (20.0) n (%)
Discontinued treatment with AE as the primary reason ([1]; human, in vivo): 18.4%
Fatigue ([1]; human, in vivo): 45 (52.9) n (%)
Grade ⩾3 AEs, patients ([1]; human, in vivo): 75.3%
Grade ⩾3 anaemia, patients ([1]; human, in vivo): 11.8%
Grade ⩾3 dyspnoea, patients ([1]; human, in vivo): 5.9%
Grade ⩾3 fatigue, patients ([1]; human, in vivo): 12.9%
Grade ⩾3 nausea, patients ([1]; human, in vivo): 7.1%
Grade ⩾3 neutropenia, patients ([1]; human, in vivo): 27.1%
Grade ⩾3 thrombocytopenia, patients ([1]; human, in vivo): 18.8%
Grade ⩾3 vomiting, patients ([1]; human, in vivo): 5.9%
Grade ⩾3 γ-glutamyltransferase increased, patients ([1]; human, in vivo): 5.9%
Lethargy ([1]; human, in vivo): 15 (17.6) n (%)
Leukopenia ([1]; human, in vivo): 7 (8.2) n (%)
Lymphopenia ([1]; human, in vivo): 6 (7.1) n (%)
Myalgia ([1]; human, in vivo): 7 (8.2) n (%)
Nausea ([1]; human, in vivo): 48 (56.5) n (%)
Neuropathy peripheral ([1]; human, in vivo): 10 (11.8) n (%)
Neutropenia ([1]; human, in vivo): 32 (37.6) n (%)
Patients who discontinued treatment because of AEs ([1]; human, in vivo): 25.9%
Patients who discontinued treatment because of neutropenia ([1]; human, in vivo): 3.5%
Patients who discontinued treatment because of platinum hypersensitivity ([1]; human, in vivo): 2.4%
Patients who discontinued treatment because of thrombocytopenia ([1]; human, in vivo): 2.4%
Stomatitis ([1]; human, in vivo): 14 (16.5) n (%)
Thrombocytopenia ([1]; human, in vivo): 27 (31.8) n (%)
Vomiting ([1]; human, in vivo): 28 (32.9) n (%)
≥1 treatment-related adverse event ([1]; human, in vivo): 80 (94.1) n (%)
Alopecia ([1]; treatment-related, any grade, All patients (N = 85), all arms): 15 (17.6) n (%)
MTD of oral rucaparib in the combination [2]: 240 mg once daily (q.d.)
clearance (clinical; iv, 12 mg): 270 mL/min
half-life (clinical; iv, 12 mg): 18.7 h
clearance (clinical; iv, 18 mg): 307 mL/min
half-life (clinical; iv, 18 mg): 16.4 h
clearance (clinical; iv, 24 mg): 233 mL/min
half-life (clinical; iv, 24 mg): 20.7 h
clearance (clinical; iv, 27 mg): 237 mL/min
half-life (clinical; iv, 27 mg): 16.8 h
clearance (clinical; iv, 40 mg): 232 mL/min
half-life (clinical; iv, 40 mg): 11.9 h
half-life (clinical; po, 12 mg): 18.6 h
half-life (clinical; po, 36 mg): 18 h
half-life (clinical; po, 48 mg): 20.3 h
half-life (clinical; po, 72 mg): 25.1 h
half-life (clinical; po, 80 mg): 20.1 h
half-life (clinical; po, 120 mg): 13.3 h
half-life (clinical; po, 180 mg): 19.2 h
half-life (clinical; po, 240 mg): 17.7 h
half-life (clinical; po, 360 mg): 18.2 h
half-life (clinical): ~17 h
change in t1/2 at steady state compared with a single dose ([3]; human): no change
Ratio of rucaparib AUC0–24, day 1/day −10 ([3]; human, iv, 24 mg): 1.02 (15)
Ratio of rucaparib Cmax, day 1/day −10 ([3]; human, iv, 24 mg): 1.03 (16)
average increase of steady-state AUC0–24 compared with a single dose ([3]; human, po): 61%
CL/F ([3]; human, po, 12 mg): 53.4 (39.7) L h^–1
CL/F ([3]; human, po, 36 mg): 32.7 (41.9) L h^–1
CL/F ([3]; human, po, 48 mg): 52.1 (150) L h^–1
CL/F ([3]; human, po, 72 mg): 65.9 (49.4) L h^–1
AR, accumulation ratio [AUC0-24, Day 14/AUC0-24, Day -5] ([3]; human, po, 80 mg): 1.19 (-)
ARcm, accumulation ratio of Cmax on day 14 to Cmax on day –5 ([3]; human, po, 80 mg): 1.50 (-)
AUC ratio [time-dependent linearity] ([3]; human, po, 80 mg): 0.655 (-)
AR, accumulation ratio [AUC0-24, Day 14/AUC0-24, Day -5] ([3]; human, po, 120 mg): 1.49 (104)
ARcm, accumulation ratio of Cmax on day 14 to Cmax on day –5 ([3]; human, po, 120 mg): 1.41 (99.8)
AUC ratio [time-dependent linearity] ([3]; human, po, 120 mg): 1.14 (101)
AR, accumulation ratio [AUC0-24, Day 14/AUC0-24, Day -5] ([3]; human, po, 180 mg): 1.36 (8.48)
ARcm, accumulation ratio of Cmax on day 14 to Cmax on day –5 ([3]; human, po, 180 mg): 1.11 (31.1)
AUC ratio [time-dependent linearity] ([3]; human, po, 180 mg): 0.785 (13.3)
CL/F ([3]; human, po, 180 mg): 21.4 (68.6) L h^–1
AR, accumulation ratio [AUC0-24, Day 14/AUC0-24, Day -5] ([3]; human, po, 240 mg): 1.64 (28.2)
ARcm, accumulation ratio of Cmax on day 14 to Cmax on day –5 ([3]; human, po, 240 mg): 1.30 (29.7)
AUC ratio [time-dependent linearity] ([3]; human, po, 240 mg): 1.01 (31.6)
AR, accumulation ratio [AUC0-24, Day 14/AUC0-24, Day -5] ([3]; human, po, 360 mg): 1.7 (46.3)
ARcm, accumulation ratio of Cmax on day 14 to Cmax on day –5 ([3]; human, po, 360 mg): 1.29 (46.1)
AUC ratio [time-dependent linearity] ([3]; human, po, 360 mg): 1.06 (53.1)
dose dependence of exposure [3]: increased approximately dose proportionally
effect of carboplatin coadministration on rucaparib oral PK ([3]; po): not affected
recommended phase II dose [4]: 600 mg twice daily
response rate ([5]; continuous oral dosing): 18%
response rate ([5]; intermittent intravenous (i.v.) dosing): 2%
disease control rate (CR, PR, or SD for ⩾12 weeks) (advanced solid tumours; across all cohorts, among patients with available data (77 of 85)): 68.8%
partial responses that were confirmed (advanced solid tumours; across all cohorts, of 9 patients with PR): 7 patients
Best response: Complete response (advanced solid tumours; [6]): 1 (1.2) n (%)
Best response: Partial response (advanced solid tumours; [6]): 9 (10.6) n (%)
Best response: Progressive disease (advanced solid tumours; [6]): 24 (28.2) n (%)
Best response: Stable disease (advanced solid tumours; [6]): 43 (50.6) n (%)

Source: publication PMC5379148, “A phase I study of intravenous and oral rucaparib in combination with chemotherapy in patients with advanced solid tumours” (British Journal of Cancer, 2017)
